Reference: article PMC7570844, “Skin Damages—Structure Activity Relationship of Benzimidazole Derivatives Bearing a 5-Membered Ring System” (Molecules, 2020)
Converted amounts (≈) assume the structure as drawn. “And” between values parts separate entries of the source, which are not always exact repeats. Equal entries are not always repeated. Where two headings read alike, the source gives them in different places.

Experiments:
[1] = system: human T-lymphocyte cells (CEM); assay: Cell proliferation inhibition
[2] = system: HEK293T (Normal Kidney Epithelial Cells); assay: Cell proliferation inhibition, non-cancer control cells; conditions: Homo sapiens, HEK-293T
[3] = system: human cervical carcinoma cells (HeLa); assay: Cell proliferation inhibition
[4] = system: human melanoma cells (SK-Mel 5); assay: Cell proliferation inhibition
[5] = system: Candida albicans (ATCC 10231); assay: Anti-Candida albicans broth microdilution MIC; conditions: Candida albicans, ATCC10231, 24 h
[6] = system: herpes simplex virus-1 TK-KOS ACVr; assay: microbe, parasite or virus in culture; format: cell-based; conditions: Human alphaherpesvirus 1, HEL, read-out: Antiviral EC50
[7] = system: Trichophyton mentagrophytes; assay: Antidermatophyte plaque growth inhibition; format: cell-based; conditions: for inhibition at 100 µg/mL: read-out: Percent growth inhibition
[8] = system: herpes simplex virus-1 (KOS); assay: Antiviral activity in HEL cell cultures (CPE, MTS); format: cell-based; conditions: Human alphaherpesvirus 1, HEL cells
[9] = system: M. gypseum, M. canis, T. mentagrophytes, T. tonsurans and E. floccosum; assay: Antidermatophyte activity, all five dermatophytes taken together; format: cell-based; conditions: for inhibition at 100 µg/mL: read-out: Percentage of growth inhibition over the five dermatophytes
vaccinia virus = assay: microbe, parasite or virus in culture; format: cell-based; conditions: Orthopoxvirus vaccinia, HEL, read-out: Antiviral EC50
Microsporum gypseum = assay: Antidermatophyte plaque growth inhibition; format: cell-based; conditions: Nannizzia gypsea; for inhibition at 100 µg/mL: read-out: Percent growth inhibition
[10] = system: vesicular stomatitis virus; assay: microbe, parasite or virus in culture; format: cell-based; conditions: HeLa, read-out: Antiviral EC50
[11] = system: human embryonic lung (HEL) cell cultures
[12] = system: herpes simplex virus-2 (G); assay: Antiviral activity in HEL cell cultures (CPE, MTS); format: cell-based; conditions: Human alphaherpesvirus 2; Herpes simplex virus-2, HEL cells
Trichophyton tonsurans = assay: Antidermatophyte plaque growth inhibition; format: cell-based; conditions: for inhibition at 100 µg/mL: read-out: Percent growth inhibition
Coxsackie virus B4 = assay: Antiviral activity in HeLa cell cultures (CPE, MTS); format: cell-based; conditions: Enterovirus B; Coxsackie virus B4, HeLa cells
[13] = DPPH radical scavenging test; conditions: mean ± SEM; for DPPH (% Inhibition): tested at 1 mg/mL
[14] = UV filtering parameters of compounds in solution (MeOH, 290-400 nm)
Epidermophyton floccosum = assay: Antidermatophyte plaque growth inhibition; format: cell-based; conditions: for inhibition at 100 µg/mL: read-out: Percent growth inhibition
[15] = Ferric reducing antioxidant power (FRAP) test; conditions: mean ± SEM
Microsporum canis = assay: Antidermatophyte plaque growth inhibition; format: cell-based; conditions: for inhibition at 100 µg/mL: read-out: Percent growth inhibition
[16] = system: Respiratory syncytial virus; assay: microbe, parasite or virus in culture; format: cell-based; conditions: human respiratory syncytial virus, HeLa cells, read-out: Antiviral EC50
HeLa cell cultures = conditions: human
Adeno virus-2 = assay: Antiviral activity in HEL cell cultures (CPE, MTS); format: cell-based; conditions: Adeno virus-2, HEL cells
Human Coronavirus (229E) = assay: microbe, parasite or virus in culture; format: cell-based; conditions: HEL, read-out: Antiviral EC50
[17] = system: human pancreatic carcinoma cells (Mia Paca-2); assay: Cell proliferation inhibition
[18] = Photostability of formulations, solar simulator; conditions: formulation on PMMA plates
[19] = UV filtering parameters of cosmetic formulation on PMMA plates (modified Diffey-Robson); format: physicochemical
[20] = T. mentagrophytes, 100 µg/mL, '+' has no key
[21] = 100 µg/mL, all five dermatophytes
[22] = M. gypseum, 100 µg/mL, '+' has no key
[23] = T. tonsurans, 100 µg/mL, '+' has no key
[24] = E. floccosum, 100 µg/mL, '+' has no key
[25] = M. canis, 100 µg/mL, '+' has no key
[26] = after solar simulator irradiation

For `O=S(=O)(O)c1ccc2[nH]c(-c3ccc[nH]3)nc2c1` [Compound 7, 2-(1H-pyrrol-2-yl)-1H-benzimidazole-5-sulfonic Acid], the IC50 [1] was 31 ± 21 µM, the IC50 [2] was 67 ± 47 µM and the IC50 [3] was > 100 µM. The IC50 [4] was > 100 µM, the MIC [5] was 64 µg/mL (≈ 243 µM) and the EC50 [6] was > 100 µM. The inhibition at 100 µg/mL [7, 20] was 69 ± 1.84%, the EC50 [8] was > 100 µM and the inhibition at 100 µg/mL [9, 21] was 50 to 79%. For the same compound, the EC50 (vaccinia virus) was > 100 µM, the melting point was > 250 °C and the inhibition at 100 µg/mL (Microsporum gypseum; [22]) was 73 ± 3.67%. The EC50 [10] was > 100 µM, the Cytotoxic concentration [11] was > 100 µM and the EC50 [12] was > 100 µM. The inhibition at 100 µg/mL (Trichophyton tonsurans; [23]) was 56.6 ± 4.04%, the EC50 (Coxsackie virus B4) was > 100 µM and the “DPPH IC50” value [13] was 1093.09 ± 8.65 µg/mL. For the same compound, the SPF [14] was 5.43±0.39, the UVA/UVB [14] was 0.2 and the UVAPF [14] was 1.22±0.03. The “λc (critical wavelength)” value [14] was 345 nm, the inhibition at 100 µg/mL (Epidermophyton floccosum; [24]) was 52.5 ± 6.58% and the FRAP [15] was 239.91 ± 1.79 µmolTE/g. For the same compound, the inhibition at 100 µg/mL (Microsporum canis; [25]) was 72.1 ± 7.51%, the EC50 [16] was > 100 µM and the Cytotoxic concentration (HeLa cell cultures) was > 100 µM. For the same compound, the EC50 (Adeno virus-2) was > 100 µM, the EC50 (Human Coronavirus (229E)) was > 100 µM and the IC50 [17] was 28 ± 10 µM.

In the case of `O=S(=O)(O)c1ccc2[nH]c(-c3cccs3)nc2c1` [Compound 9, 2-(thiophen-2-yl)-1H-benzimidazole-5-sulfonic Acid], the IC50 [1] is reported as 34 ± 2 µM, the IC50 [2] is reported as > 100 µM and the IC50 [3] is reported as > 100 µM. For the same compound, the IC50 [4] was > 100 µM, the MIC [5] was 64 µg/mL (≈ 228 µM) and the EC50 [6] was > 100 µM. For the same compound, the inhibition at 100 µg/mL [7, 20] was 57.3 ± 1.09%, the EC50 [8] was > 100 µM and the inhibition at 100 µg/mL [9, 21] was 50 to 79%. The EC50 (vaccinia virus) was > 100 µM, the melting point was > 250 °C and the inhibition at 100 µg/mL (Microsporum gypseum; [22]) was 59.8 ± 6.12%. For the same compound, the EC50 [10] was > 100 µM, the Cytotoxic concentration [11] was > 100 µM and the EC50 [12] was > 100 µM. The inhibition at 100 µg/mL (Trichophyton tonsurans; [23]) was 50.8 ± 2.11%, the EC50 (Coxsackie virus B4) was > 100 µM and the “DPPH (% Inhibition)” value [13] was 12.52 ± 0.88%. It also gave an SPF [14] of 4.72±0.17, a UVA/UVB [14] of 0.48 and a UVAPF [14] of 1.43±0.09. For the same compound, the “λc (critical wavelength)” value [14] was 339 nm, the inhibition at 100 µg/mL (Epidermophyton floccosum; [24]) was 50 ± 3.26% and the FRAP [15] was 82.16 ± 0.22 µmolTE/g. The inhibition at 100 µg/mL (Microsporum canis; [25]) was 65.9 ± 3.21%, the EC50 [16] was > 100 µM and the Cytotoxic concentration (HeLa cell cultures) was > 100 µM. For the same compound, the EC50 (Adeno virus-2) was > 100 µM, the EC50 (Human Coronavirus (229E)) was > 100 µM and the IC50 [17] was 43 ± 14 µM.

With `c1coc(-c2nc3ccccc3[nH]2)c1` [Compound 11, 2-(furan-2-yl)-1H-benzimidazole] the IC50 [1] was > 100 µM, the “% SPFeff (residual in vitro SPF after irradiation)” value [18, 26] was “less than 80%” and the “% UVA-PFeff (residual UVA-PF after irradiation)” value [18, 26] was “less than 80%”. The “Photostability (in words)” value ([18]; irradiated with solar simulator, photostable if % SPF and % PF-UVA at least 80%) was “photoinstable”, the IC50 [2] was > 100 µM and the IC50 [3] was > 100 µM. The IC50 [4] was > 100 µM, the EC50 [6] was > 100 µM and the IC50 [7] was 1.61 ± 0.1 µg/mL (≈ 8.74 µM). For the same compound, the inhibition at 100 µg/mL [7] was 97.2 ± 4.53%, the EC50 [8] was > 100 µM and the “Activity on dermatophytes (in words)” value ([9]; 100 µg/mL) was “fungicide activity”. The IC50 ([9]; read-out: IC50 range over the five dermatophytes) was 0.97 to 3.8 µg/mL (≈ 5.27 to 20.6 µM), the inhibition at 100 µg/mL [9] was ~100% and the EC50 (vaccinia virus) was > 100 µM. For the same compound, the IC50 (Microsporum gypseum) was 1.54 ± 0.02 µg/mL (≈ 8.36 µM), the inhibition at 100 µg/mL (Microsporum gypseum) was 99 ± 0.28% and the EC50 [10] was > 100 µM. For the same compound, the Cytotoxic concentration [11] was > 100 µM, the EC50 [12] was > 100 µM and the SPF ([19]; 1% in formulation) was 6.84. It also gave a UVA/UVB ([19]; 1% in formulation) of 0.69, a UVAPF ([19]; 1% in formulation) of 1.94 and a λc ([19]; 1% in formulation) of 368 nm. For the same compound, the SPF ([19]; 2% in formulation) was 10.39, the UVA/UVB ([19]; 2% in formulation) was 0.13 and the UVAPF ([19]; 2% in formulation) was 1.53. For the same compound, the λc ([19]; 2% in formulation) was 366 nm, the SPF ([19]; 3% in formulation) was 11.15 and the UVA/UVB ([19]; 3% in formulation) was 0.18. The UVAPF ([19]; 3% in formulation) was 1.82, the λc ([19]; 3% in formulation) was 371 nm and the IC50 (Trichophyton tonsurans) was 1.89 ± 0.22 µg/mL (≈ 10.3 µM). The inhibition at 100 µg/mL (Trichophyton tonsurans) was 94.7 ± 5.63%, the EC50 (Coxsackie virus B4) was > 100 µM and the “DPPH (% Inhibition)” value [13] was 15.46 ± 0.98%. It also gave an SPF [14] of 20.06±3.04, a UVA/UVB [14] of 0.3 and a UVAPF [14] of 1.05±0.06. For the same compound, the “λc (critical wavelength)” value [14] was 333 nm, the IC50 (Epidermophyton floccosum) was 2.44 ± 0.05 µg/mL (≈ 13.2 µM) and the inhibition at 100 µg/mL (Epidermophyton floccosum) was 97.9 ± 4.23%. The FRAP [15] was 4462.64 µmolTE/g and 4462.64 ± 18.29 µmolTE/g, the IC50 (Microsporum canis) was 1.58 ± 0.06 µg/mL (≈ 8.58 µM) and the inhibition at 100 µg/mL (Microsporum canis) was 98.3 ± 2.03%. The EC50 [16] was > 100 µM, the Cytotoxic concentration (HeLa cell cultures) was > 100 µM and the EC50 (Adeno virus-2) was > 100 µM. The EC50 (Human Coronavirus (229E)) was > 100 µM and the IC50 [17] was > 100 µM.
